# Measurements as given in US5100873A, “Irreversible peptide ligands for bombesin receptors, their use, and process for making the same” (priority 1988, dated 1992).
# Where a name gives a salt, the structure may show the parent alone. Read-outs that look alike come from different tables or passages of the source. *1 amine or outer side, *2 acyl side, *3 side chain or, on linkers, in order; H or OH if unused. Where a SMILES comes first, the peptide text is derived from it. [ ]: non-standard residue; d: D form. The star is where a group is joined. Phe(4-N(CH2CH2Cl)2) = N[C@@H](Cc1ccc(N(CCCl)CCCl)cc1)C(=O)O; X1 = O=C([C@H](Cc1cccc(N(CCCl)CCCl)c1)N[*:1])[*:2]; Boc = CC(C)(C)OC(=O)*
# Key:
# [1] = system: Swiss 3T3 fibroblasts; assay: [H3]thymidine incorporation (mitogenesis), analogues given alone; type: cell-based, mouse; settings: for [H3]thymidine incorporation, fold increase over basal value: analogue alone; for Effect on thymidine incorporation (in words): given alone
# Description: (§1) The effect on mitogenesis was determined in quiescent and confluent Swiss 3T3 cells maintained in serum free medium (A. N. Corps et al (1985) Biochem J. 231, 781-785). In a first set of experiments, analogues were given alone or in combination with bombesin. In a second set of experiments, cells were pre-treated with the alkylating peptides, washed, left at 37° C. for 24 hours and then challenged with bombesin. In both cases, DNA synthesis was evaluated as [H^3 ]thymidine incorporation (Table 2).
# [2] = system: p115 protein associated with the bombesin receptor complex; assay: Phosphorylation of the p115 protein associated with the bombesin receptor; type: cell-based
# Description: Mitogenic effect of bombesin and its analogues were also evaluated as activation of the proteintyrosin kinase that phosphorylates a 115 KD protein (p115) associated with the bombesin receptor complex (D. Cirillo et al. (1986) Mol. Cell. Biol. 6, 4641-4649) (Table 3).
# [3] = target: T1, bombesin receptors (Mus musculus, UniProt P21729); assay: Binding affinity for bombesin receptors on mouse Swiss 3T3 fibroblasts; settings: for ID50: mouse Swiss 3T3 fibroblasts
# T1 construct: bombesin receptors was determined on mouse Swiss 3T3 fibroblasts; endogenous in cells; host or cells: mouse Swiss 3T3 fibroblasts
# T1 sequence (P21729 whole entry): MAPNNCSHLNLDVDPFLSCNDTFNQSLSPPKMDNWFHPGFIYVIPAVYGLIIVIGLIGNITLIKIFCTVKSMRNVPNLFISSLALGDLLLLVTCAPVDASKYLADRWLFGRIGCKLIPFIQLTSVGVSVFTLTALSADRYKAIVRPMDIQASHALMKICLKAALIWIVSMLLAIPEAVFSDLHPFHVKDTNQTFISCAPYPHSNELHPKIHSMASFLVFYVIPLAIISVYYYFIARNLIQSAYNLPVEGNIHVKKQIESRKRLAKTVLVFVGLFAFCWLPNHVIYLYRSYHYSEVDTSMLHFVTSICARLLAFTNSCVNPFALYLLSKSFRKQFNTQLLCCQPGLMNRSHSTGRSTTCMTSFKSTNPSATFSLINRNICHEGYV
# Description: The binding affinity of the compounds of the present invention for bombesin receptors was determined on mouse Swiss 3T3 fibroblasts (I. Zachary and E. Rozengurt (1985) Proc. Natl. Acad. Sci. USA, 82, 7616-7620) (Table 1).
# [4] = system: Swiss 3T3 fibroblasts; assay: Inhibition of BBS-induced [H3]thymidine incorporation (given with BBS or as pre-treatment); type: cell-based, mouse
# [5] = system: Swiss 3T3 fibroblasts; assay: as above; type: cell-based, mouse; settings: for % inhibition in the presence of 25 nM BBS (A): A = analogues given in combination with BBS; for % inhibition in the presence of 25 nM BBS (B): B = cells pretreated with analogues, washed, left at 37° C. for 24 h, then challenged with BBS; for Antagonism of BBS (in words): given together / contemporaneously with BBS
# Description: as §1
compound,measurement,setting,value
"CSCC[C@H](NC(=O)[C@H](CC(C)C)NC(=O)[C@H](Cc1cnc[nH]1)NC(=O)CNC(=O)[C@@H](NC(=O)[C@H](C)NC(=O)[C@H](Cc1c[nH]c2ccccc12)NC(=O)[C@H](CCC(N)=O)NC(=O)[C@H](CC(N)=O)NC(=O)CNC(=O)[C@H](CC(C)C)NC(=O)[C@H](CCCN=C(N)N)NC(=O)[C@H](CCC(N)=O)NC(=O)[C@@H]1CCC(=O)N1)C(C)C)C(N)=O [BBS, Glp-Gln-Arg-Leu-Gly-Asn-Gln-Trp-Ala-Val-Gly-His-Leu-Met-NH2, reference compound]","[H3]thymidine incorporation, fold increase over basal value",[1]; 5 nM,3.0 ± 1
same,"Minimal active dose, p115 phosphorylation",[2],3
"CC(C)[C@H](NC(=O)[C@H](C)NC(=O)[C@H](Cc1c[nH]c2ccccc12)NC(=O)[C@H](CCC(N)=O)NC(=O)[C@H](Cc1ccc(N(CCCl)CCCl)cc1)NC(=O)OC(C)(C)C)C(=O)NCC(=O)O [III, Boc-pMel-Gln-Trp-Ala-Val-Gly-OH] (Boc-[Phe(4-N(CH2CH2Cl)2)]QWAVG-OH)",IC50,[3],12 µM
"CC(C)[C@H](NC(=O)[C@H](C)NC(=O)[C@H](Cc1c[nH]c2ccccc12)NC(=O)[C@H](CCC(N)=O)NC(=O)[C@H](Cc1cccc(N(CCCl)CCCl)c1)NC(=O)OC(C)(C)C)C(=O)NCC(=O)O [IX, Boc-mMel-Gln-Trp-Ala-Val-Gly-OH] (Boc-[X1]QWAVG-OH)",IC50,[3],8.2 µM
"CC(C)C[C@H](NC(=O)[C@H](CC(C)C)NC(=O)[C@@H](Cc1c[nH]c2ccccc12)NC(=O)[C@H](Cc1ccccc1)NC(=O)[C@@H](Cc1c[nH]c2ccccc12)NC(=O)[C@H](CCC(N)=O)NC(=O)[C@H](CCC(N)=O)NC(=O)[C@@H]1CCCN1C(=O)[C@H](CCCCN)NC(=O)[C@@H]1CCCN1C(=O)[C@H](N)CCCNC(=N)N)C(N)=O [Spantide, reference compound] (H-[dR]PKPQQ[dW]F[dW]LL-NH2)","Minimal active dose, p115 phosphorylation",[2],> 10000 nM
"CSCC[C@H](NC(=O)[C@H](CC(C)C)NC(=O)[C@H](Cc1c[nH]cn1)NC(=O)CNC(=O)[C@@H](NC(=O)[C@H](C)NC(=O)[C@H](Cc1c[nH]c2ccccc12)NC(=O)[C@H](CCC(N)=O)NC(=O)[C@H](Cc1ccc(N(CCCl)CCCl)cc1)NC(=O)OC(C)(C)C)C(C)C)C(N)=O [VI, Boc-pMel-Gln-Trp-Ala-Val-Gly-His-Leu-Met-NH2]",IC50,[3],0.048 ± 0.002 µM
"CSCC[C@H](NC(=O)[C@H](CC(C)C)NC(=O)[C@H](Cc1c[nH]cn1)NC(=O)CNC(=O)[C@@H](NC(=O)[C@H](C)NC(=O)[C@H](Cc1c[nH]c2ccccc12)NC(=O)[C@H](CCC(N)=O)NC(=O)[C@@H](N)Cc1ccc(N(CCCl)CCCl)cc1)C(C)C)C(N)=O [VII, H-pMel-Gln-Trp-Ala-Val-Gly-His-Leu-Met-NH2.2 HCl]",IC50,[3],0.06 ± 0.02 µM
"CSCC[C@H](NC(=O)[C@H](CC(C)C)NC(=O)CNC(=O)[C@@H](NC(=O)[C@H](C)NC(=O)[C@H](Cc1c[nH]c2ccccc12)NC(=O)[C@H](CCC(N)=O)NC(=O)[C@@H](NC(=O)CNC(=O)[C@H](CC(C)C)NC(=O)[C@H](Cc1cccc(N(CCCl)CCCl)c1)NC(=O)OC(C)(C)C)[C@@H](C)O)C(C)C)C(N)=O [XIV, Boc-mMel-Leu-Gly-Thr-Gln-Trp-Ala-Val-Gly-Leu-Met-NH2] (Boc-[X1]LGTQWAVGLM-NH2)",IC50,[3],0.445 ± 0.06 µM
"CSCC[C@H](NC(=O)[C@H](CC(C)C)NC(=O)[C@H](Cc1c[nH]cn1)NC(=O)CNC(=O)[C@@H](NC(=O)[C@H](C)NC(=O)[C@H](Cc1c[nH]c2ccccc12)NC(=O)[C@H](CCC(N)=O)NC(=O)[C@@H](N)Cc1cccc(N(CCCl)CCCl)c1)C(C)C)C(N)=O [XIX, H-mMel-Gln-Trp-Ala-Val-Gly-His-Leu-Met-NH2.2HCl]",IC50,[3],0.095 ± 0.008 µM
"CSCC[C@H](NC(=O)[C@H](CC(C)C)NC(=O)[C@H](Cc1c[nH]cn1)NC(=O)CNC(=O)[C@@H](NC(=O)[C@H](C)NC(=O)[C@H](Cc1c[nH]c2ccccc12)NC(=O)[C@H](CCC(N)=O)NC(=O)[C@H](Cc1cccc(N(CCCl)CCCl)c1)NC(=O)OC(C)(C)C)C(C)C)C(N)=O [XVIII, Boc-mMel-Gln-Trp-Ala-Val-Gly-His-Leu-Met-NH3.CF3 COOH]",IC50,[3],0.04 ± 0.012 µM
"CSCC[C@H](NC(=O)[C@H](CC(C)C)NC(=O)CNC(=O)[C@@H](NC(=O)[C@H](C)NC(=O)[C@H](Cc1c[nH]c2ccccc12)NC(=O)[C@H](CCC(N)=O)NC(=O)[C@H](Cc1cccc(N(CCCl)CCCl)c1)NC(=O)OC(C)(C)C)C(C)C)C(N)=O [XX, Boc-mMel-Gln-Trp-Ala-Val-Gly-Leu-Met-NH2] (Boc-[X1]QWAVGLM-NH2)",IC50,[3],0.0601 ± 0.0033 µM
Boc-mMel-Gln-Trp-Ala-Val-Gly-His(Dnp)-Leu-Met-NH2 [XVI],"[H3]thymidine incorporation, fold increase over basal value",[1]; 5 nM,1.2
same,"[H3]thymidine incorporation, fold increase over basal value",[1]; 50 nM,1.6
same,"[H3]thymidine incorporation, fold increase over basal value",[1]; 500 nM,3.1
same,"[H3]thymidine incorporation, fold increase over basal value",[1]; 5000 nM,3.9
same,Effect on thymidine incorporation (in words),[1],did not increase incorporation of thymidine
same,Antagonism of BBS (in words),[4],potent antagonists
same,"Minimal active dose, p115 phosphorylation",[2],40 nM
same,ID50,[3],390 ± 160 nM
same,% inhibition in the presence of 25 nM BBS (A),[5]; 500 nM,17 ± 2%
same,% inhibition in the presence of 25 nM BBS (B),[5]; 500 nM,47 ± 10%
same,% inhibition in the presence of 25 nM BBS (A),[5]; 5000 nM,41 ± 1%
same,% inhibition in the presence of 25 nM BBS (B),[5]; 5000 nM,37 ± 7%
same,Antagonism of BBS (in words),[5],potent antagonists
Boc-pMel-Gln-Trp-Ala-Val-Gly-His(Dnp)-Leu-Met-NH2 [IV],"[H3]thymidine incorporation, fold increase over basal value",[1]; 5 nM,1
same,"[H3]thymidine incorporation, fold increase over basal value",[1]; 50 nM,1
same,"[H3]thymidine incorporation, fold increase over basal value",[1]; 500 nM,1.7
same,"[H3]thymidine incorporation, fold increase over basal value",[1]; 5000 nM,2.3
same,Effect on thymidine incorporation (in words),[1],did not increase incorporation of thymidine
same,Antagonism of BBS (in words),[4],potent antagonists
same,"Minimal active dose, p115 phosphorylation",[2],50 nM
same,ID50,[3],"1,170 ± 400 nM"
same,% inhibition in the presence of 25 nM BBS (A),[5]; 500 nM,59 ± 3%
same,% inhibition in the presence of 25 nM BBS (B),[5]; 500 nM,81%
same,% inhibition in the presence of 25 nM BBS (A),[5]; 5000 nM,67 ± 3%
same,% inhibition in the presence of 25 nM BBS (B),[5]; 5000 nM,73%
same,Antagonism of BBS (in words),[5],potent antagonists
H-mMel-Gln-Trp-Ala-Val-Gly-His-(Dnp)-Leu-Met-NH2.HCl [XVII],"[H3]thymidine incorporation, fold increase over basal value",[1]; 5 nM,1
same,"[H3]thymidine incorporation, fold increase over basal value",[1]; 50 nM,2.9
same,"[H3]thymidine incorporation, fold increase over basal value",[1]; 500 nM,4.2
same,"[H3]thymidine incorporation, fold increase over basal value",[1]; 5000 nM,3.9
same,Effect on thymidine incorporation (in words),[1],did not increase incorporation of thymidine
same,Antagonism of BBS (in words),[4],potent antagonists
same,"Minimal active dose, p115 phosphorylation",[2],4 nM
same,ID50,[3],148 ± 27 nM
same,% inhibition in the presence of 25 nM BBS (A),[5]; 500 nM,6 ± 3%
same,% inhibition in the presence of 25 nM BBS (B),[5]; 500 nM,58 ± 13%
same,% inhibition in the presence of 25 nM BBS (A),[5]; 5000 nM,20 ± 7%
same,% inhibition in the presence of 25 nM BBS (B),[5]; 5000 nM,62 ± 1%
same,Antagonism of BBS (in words),[5],potent antagonists
H-pMel-Gln-Trp-Ala-Val-Gly-His(Dnp)-Leu-Met-NH2.HCl,"[H3]thymidine incorporation, fold increase over basal value",[1]; 5 nM,1
same,"[H3]thymidine incorporation, fold increase over basal value",[1]; 50 nM,1
same,"[H3]thymidine incorporation, fold increase over basal value",[1]; 500 nM,1.4
same,"[H3]thymidine incorporation, fold increase over basal value",[1]; 5000 nM,1.8
same,Effect on thymidine incorporation (in words),[1],did not increase incorporation of thymidine
same,Antagonism of BBS (in words),[4],potent antagonists
same,"Minimal active dose, p115 phosphorylation",[2],100 nM
same,ID50,[3],680 ± 150 nM
same,% inhibition in the presence of 25 nM BBS (A),[5]; 500 nM,26 ± 8%
same,% inhibition in the presence of 25 nM BBS (B),[5]; 500 nM,87 ± 9%
same,% inhibition in the presence of 25 nM BBS (A),[5]; 5000 nM,44 ± 12%
same,% inhibition in the presence of 25 nM BBS (B),[5]; 5000 nM,83 ± 6%
same,Antagonism of BBS (in words),[5],potent antagonists
